pIC50, pKi: −log10 of the molar value. Like-named read-outs stand apart in the source and are kept apart here.
What was measured:
[1] = tested on: lung cancer cells (line MV522); assay: Cancer cell proliferation (MV522) assay; assay type: cell-based
Protocol: The protocol for assessing cellular proliferation in cancer cells is similar to that used for assessments in HUVEC cells. Two thousand lung cancer cells (line MV522, acquired from American Tissue Cultural Collection) were seeded in growth media (RPMI1640 medium supplemented with 2 mM glutamine and 10% FBS). Cells are allowed to attach for 1 day prior to addition of test agents and /or vehicles. Cells are treated simultaneously with the same test agents used in the HUVEC assay. Cellular proliferation is quantified by MTT dye reduction assay 72 hours after exposure to test agents. The total length of the assay is 4 days vs. 5 for HUVEC cells because MV522 cells are not exposed to starvation medium.

[2] = tested on: VEGF dependent retinal neovascularization; assay: Neonatal rat model of retinopathy of prematurity; assay type: in vivo; conditions: Model ROP, intravitreal, 10 mg/ml, vehicle PEG/water 70:30
LCK tyrosine kinase = LCK tyrosine kinase (Homo sapiens, UniProt P06239, C224D/P223M); assay: LCK spectrophotometric assay; assay type: biochemical; conditions: Table 1; compound concentration 1 µM; read-out: Lck-P* (% inhibition)
Protocol: The spectrophotometric assay was carried out as described above for VEGF-R2, except for the following changes in concentration: LCK = 60 nM, MgCl2 = 0 mM, poly(E4Y1) = 20 mM.

CDK4/Cyclin D3 complex = CDK4/Cyclin D3 complex (Homo sapiens, UniProt P11802); assay: biochemical; conditions: for inhibition at 1 µM: read-out: CDK4 * (% inhibition)
in vivo = conditions: mouse, plasma, 50 mg/kg, pH 2.3
[3] = target: T1, phosphorylated Tie-2 (aa 775-1122) (Homo sapiens, UniProt Q02763); assay: TIE-2 spectrophotometric assay; assay type: biochemical; conditions: for inhibition at 1 µM: Table 5, bold values spectrophotometric assay, non-bolded DELFIA assay (bold not visible here), read-out: % Inhibition @ 1 µM Tie2-P
T1 construct: 4 to 12 nM phosphorylated Tie-2 (aa 775-1122); made in house; host or cells: insect cells
Summary of the method: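 Human phosphorylated Tie-2 kinase activity was measured spectrophotometrically by coupling ADP formation, from phosphoryl transfer to poly(Glu4 Tyr), to NADH oxidation via pyruvate kinase and lactate dehydrogenase. Absorbance loss at 340 nm was read on a Beckman DU650. Reactions held 1 mM phosphoenolpyruvate, 0.24 mM NADH, 40 mM MgCl2, 5 mM DTT, 0.5 mM ATP, and 15 units/mL each of PK and LDH in 100 mM HEPES, pH 7.5.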

CDK2/Cyclin A complex = CDK2/Cyclin A complex (Homo sapiens, UniProt P24941); assay: CDK2/Cyclin A assay ([32P]ATP incorporation into Rb fragment); assay type: biochemical; conditions: for inhibition at 1 µM: read-out: CDK2 * (% inhibition)
[4] = tested on: human umbilical vein endothelial cells (HUVEC); assay: HUVEC proliferation assay (VEGF-stimulated, MTT); assay type: cell-based; conditions: Homo sapiens, HUVEC, Table 1
human FAK (FAKcd409) = target: T2, human FAK (FAKcd409) (Homo sapiens, UniProt Q05397, P410T); assay: FAK fluorescence polarization assay; assay type: biochemical; conditions: for inhibition at 1 µM: Table 5, read-out: % Inhibition @ 1 µM FAK
T2 construct: comprises residues methionine 409 to glutamate 689; made in house; host or cells: baculovirus vector expression system (insect cells)
Protocol: FAK Construct for Assay. The catalytic domain of human FAK (FAKcd409) was expressed using the baculovirus vector expression system. […] The protein was purified using classical chromatography techniques.
FAK HTS utilized the fluorescence polarization assay provided by LJL Biosystems. The kinase reaction contained: 100mM Hepes pH 7.5, 10mM MgCl2, 1mM DTT, 1mM ATP, and 1mg/ml poly Glu-Tyr (4: 1). The reaction is initiated by the addition of 5nM FAKcd409. The reaction is terminated by the addition of EDTA followed by addition of fluor-labelled peptide and anti-phosphotyrosine antibody, both provided by LJL Biosystems. Inhibition results are read on a Analyst (LJL) detector.

in vitro = in vitro ADME, human; conditions: human liver microsomes, 5 µM test compound, 37 °C, 2 h
Summary of the method: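 HLM diluted to 5 mg/mL in 100 mM KPO4, preincubated 10 min at 37 °C with NADPH-regenerating system. Compound (5 µM final) incubated at 37 °C in triplicate, sampled at 0 and 2 h into ice-cold acetonitrile, then LC-MS analysis.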

human FGF-R1 = human FGF-R1 (Homo sapiens, UniProt P11362, C488A/C584S/L457V); assay: FGF-R spectrophotometric assay; assay type: biochemical; conditions: Table 1; compound concentration 1 µM; read-out: FGF-P* (% inhibition)
Protocol: The spectrophotometric assay was carried out as described above for VEGF-R2, except for the following changes in concentration: FGF-R = 50 nM, ATP = 2 mM, and poly(E4Y1) =15 mM.

human CHK1 (FL-CHK1) = target: T3, human CHK1 (FL-CHK1) (Homo sapiens, UniProt O14757); assay: CHK1 coupled spectrophotometric assay; assay type: biochemical; conditions: read-out: CHK -1* (% inhibition)
T3 construct: C-terminally His-tagged full-length human CHK1 (FL-CHK1) was expressed using the baculovirus/insect cell system; made in house; host or cells: baculovirus/insect cell system
T3 sequence (O14757 1-476): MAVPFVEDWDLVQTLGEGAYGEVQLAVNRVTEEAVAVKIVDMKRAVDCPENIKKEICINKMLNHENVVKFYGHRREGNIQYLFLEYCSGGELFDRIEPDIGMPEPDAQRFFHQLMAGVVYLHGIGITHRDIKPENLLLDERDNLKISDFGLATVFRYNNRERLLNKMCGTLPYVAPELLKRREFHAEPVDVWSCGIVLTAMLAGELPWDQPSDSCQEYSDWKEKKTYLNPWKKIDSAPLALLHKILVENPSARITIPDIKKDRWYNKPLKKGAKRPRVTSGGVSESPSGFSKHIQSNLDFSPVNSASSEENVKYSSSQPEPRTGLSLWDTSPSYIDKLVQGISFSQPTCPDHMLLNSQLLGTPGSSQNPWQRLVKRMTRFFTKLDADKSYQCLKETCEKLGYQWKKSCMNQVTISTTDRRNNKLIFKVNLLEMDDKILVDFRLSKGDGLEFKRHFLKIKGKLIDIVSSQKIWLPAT
Summary of the method: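 His-tagged full-length human CHK1 from baculovirus/insect cells, 10 nM, phosphorylating Syntide-2. ADP formation coupled via PK/LDH with PEP to NADH oxidation, followed as absorbance decrease at 340 nm. Ki from initial rates at varying compound concentrations.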

CDK1 = CDK1 (Homo sapiens, UniProt P06493); assay: CDK1 assay (Table 3); assay type: biochemical; conditions: compound concentration 1 µM, NI = no significant inhibition
[5] = target: unphosphorylated VEGF-R2Δ50 (Homo sapiens, UniProt P35968, DEL940-989/E990V); assay: biochemical; conditions: read-out: FLVK* (% inhibition)
[6] = IP, 50 mg/kg, vehicle PEG400:H2O pH 2.3 30:70
[7] = + albumin, read-out: HUVEC + albumin IC50
[8] = Table 3, read-out: CDK1* (% inhibition)

Sequence of LCK tyrosine kinase (P06239 223-509 P223M/C224D): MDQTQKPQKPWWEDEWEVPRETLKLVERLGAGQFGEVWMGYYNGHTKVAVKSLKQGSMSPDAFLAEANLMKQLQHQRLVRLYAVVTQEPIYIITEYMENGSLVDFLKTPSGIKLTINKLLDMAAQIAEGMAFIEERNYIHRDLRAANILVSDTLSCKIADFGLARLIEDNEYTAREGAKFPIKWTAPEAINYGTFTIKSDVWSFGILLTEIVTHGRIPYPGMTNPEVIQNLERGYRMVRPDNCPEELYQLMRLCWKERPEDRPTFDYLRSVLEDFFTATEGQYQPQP
Sequence of CDK1 (P06493 whole entry, species assumed): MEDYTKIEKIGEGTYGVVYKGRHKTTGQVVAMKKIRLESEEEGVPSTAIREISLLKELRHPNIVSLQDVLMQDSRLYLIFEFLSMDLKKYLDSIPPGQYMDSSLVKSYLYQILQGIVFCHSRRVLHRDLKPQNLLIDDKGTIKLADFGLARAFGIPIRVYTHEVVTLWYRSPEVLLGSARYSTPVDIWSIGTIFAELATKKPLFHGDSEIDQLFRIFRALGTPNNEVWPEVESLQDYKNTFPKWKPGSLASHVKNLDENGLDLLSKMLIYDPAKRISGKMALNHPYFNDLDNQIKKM
Sequence of CDK1 (P14635 whole entry partner, species assumed): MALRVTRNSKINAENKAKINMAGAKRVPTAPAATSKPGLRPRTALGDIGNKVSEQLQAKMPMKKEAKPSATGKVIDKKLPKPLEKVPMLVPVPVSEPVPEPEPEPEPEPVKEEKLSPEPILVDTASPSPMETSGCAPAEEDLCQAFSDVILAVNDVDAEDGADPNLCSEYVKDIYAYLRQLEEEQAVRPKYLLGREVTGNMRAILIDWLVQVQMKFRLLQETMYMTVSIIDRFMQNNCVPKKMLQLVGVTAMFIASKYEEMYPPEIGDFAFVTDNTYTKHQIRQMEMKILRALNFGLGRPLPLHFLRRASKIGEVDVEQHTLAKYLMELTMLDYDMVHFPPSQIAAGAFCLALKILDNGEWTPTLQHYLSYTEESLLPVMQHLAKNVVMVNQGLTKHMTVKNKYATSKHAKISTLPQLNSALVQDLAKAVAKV
T1 sequence (Q02763 775-1122): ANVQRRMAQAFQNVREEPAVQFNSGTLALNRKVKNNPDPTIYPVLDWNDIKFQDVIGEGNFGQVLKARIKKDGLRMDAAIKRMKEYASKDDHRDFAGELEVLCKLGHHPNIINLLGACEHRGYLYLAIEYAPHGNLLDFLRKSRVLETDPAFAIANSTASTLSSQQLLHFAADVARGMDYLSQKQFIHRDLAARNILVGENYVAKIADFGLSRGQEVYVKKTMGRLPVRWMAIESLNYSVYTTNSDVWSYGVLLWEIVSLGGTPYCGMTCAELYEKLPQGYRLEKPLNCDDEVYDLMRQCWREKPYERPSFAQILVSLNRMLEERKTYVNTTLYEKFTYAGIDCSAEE
Sequence of CDK4/Cyclin D3 complex (P11802 whole entry): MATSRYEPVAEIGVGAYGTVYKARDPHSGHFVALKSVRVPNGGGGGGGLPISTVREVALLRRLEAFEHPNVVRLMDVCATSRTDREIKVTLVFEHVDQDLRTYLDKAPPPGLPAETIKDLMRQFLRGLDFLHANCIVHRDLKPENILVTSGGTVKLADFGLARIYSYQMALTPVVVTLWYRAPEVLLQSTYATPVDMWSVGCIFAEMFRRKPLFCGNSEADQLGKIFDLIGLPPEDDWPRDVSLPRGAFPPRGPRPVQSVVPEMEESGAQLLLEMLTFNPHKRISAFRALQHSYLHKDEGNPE
Sequence of CDK4/Cyclin D3 complex (P30281 whole entry partner): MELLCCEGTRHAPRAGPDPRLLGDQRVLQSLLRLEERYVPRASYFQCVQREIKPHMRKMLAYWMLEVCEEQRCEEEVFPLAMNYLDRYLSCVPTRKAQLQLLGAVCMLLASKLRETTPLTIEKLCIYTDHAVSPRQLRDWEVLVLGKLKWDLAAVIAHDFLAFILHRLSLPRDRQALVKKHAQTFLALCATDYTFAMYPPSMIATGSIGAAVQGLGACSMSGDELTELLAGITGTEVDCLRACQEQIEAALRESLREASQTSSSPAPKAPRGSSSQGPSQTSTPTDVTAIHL
T2 sequence (Q05397 409-689 P410T): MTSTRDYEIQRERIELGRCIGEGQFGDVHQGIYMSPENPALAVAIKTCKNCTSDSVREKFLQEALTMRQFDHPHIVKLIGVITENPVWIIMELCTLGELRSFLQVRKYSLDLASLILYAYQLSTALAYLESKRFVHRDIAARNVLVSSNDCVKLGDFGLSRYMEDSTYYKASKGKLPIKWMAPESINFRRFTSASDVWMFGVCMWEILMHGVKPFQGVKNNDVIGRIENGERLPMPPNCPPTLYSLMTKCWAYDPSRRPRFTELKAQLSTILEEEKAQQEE
Sequence of unphosphorylated VEGF-R2Δ50 (P35968 with tags, fused parts or gaps DEL940-989/E990V limits assumed): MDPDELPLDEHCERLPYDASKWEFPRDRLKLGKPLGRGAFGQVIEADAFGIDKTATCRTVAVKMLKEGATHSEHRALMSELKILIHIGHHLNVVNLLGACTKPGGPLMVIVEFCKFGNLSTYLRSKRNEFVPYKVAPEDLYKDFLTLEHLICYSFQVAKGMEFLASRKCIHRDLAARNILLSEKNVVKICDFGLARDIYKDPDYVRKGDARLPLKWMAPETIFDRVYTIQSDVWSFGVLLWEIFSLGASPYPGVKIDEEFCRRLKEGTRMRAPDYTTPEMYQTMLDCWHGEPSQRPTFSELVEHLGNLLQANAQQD
Sequence of human FGF-R1 (P11362 456-766 L457V/C488A/C584S): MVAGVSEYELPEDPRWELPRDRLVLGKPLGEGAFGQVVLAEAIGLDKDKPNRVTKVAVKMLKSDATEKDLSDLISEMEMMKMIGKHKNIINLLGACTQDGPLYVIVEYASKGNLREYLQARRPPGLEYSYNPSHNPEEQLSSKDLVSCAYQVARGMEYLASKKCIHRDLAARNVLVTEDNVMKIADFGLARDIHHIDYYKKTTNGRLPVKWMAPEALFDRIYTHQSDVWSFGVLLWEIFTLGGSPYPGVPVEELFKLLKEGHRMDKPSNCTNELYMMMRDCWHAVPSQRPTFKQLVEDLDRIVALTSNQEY

O=C(Nc1cccc(Oc2ccc3c(/C=C/c4ccccc4)n[nH]c3c2)c1)c1ccccc1 [4(a), N-[3-(3-Styryl-1H-indazol-6-yloxy)-phenyl]-benzamide]
pIC50 ([1]; MV522, Table 1, read-out: MV522 IC50): 5.20
Initial Evaluation [2]: ++ (two pluses being judged to be approximately 25-75 % regression)
inhibition at 1 µM (LCK tyrosine kinase): 68%
inhibition at 1 µM (CDK4/Cyclin D3 complex): 19%
Cmax (in vivo; po): 50 ng/mL
inhibition at 1 µM [3]: 69%

CCOc1cc(CO)c(-c2ccc3c(-c4nc5ccccc5[nH]4)n[nH]c3c2)cc1OC [Reference Example 24(m), 3-1H-Benzoimidazol-2-yl-6-(2-(hydroxymethyl)-4-ethoxy-5-methozy-phenyl)-1H-indazole]
inhibition at 1 µM (CDK2/Cyclin A complex): 17%
inhibition at 1 µM (CDK4/Cyclin D3 complex): 16%

C=CCn1nc(C)cc1C(=O)Nc1cccc(C(=O)c2ccc3c(/C=C/c4ccccn4)n[nH]c3c2)c1 [Reference Example 41(t), 6-[3-((1-Allyl-3-methyl-1H-pyrazol-5-yl)carboxamido)benzoyl]-3-E-[2-(pyridin-2-yl)ethenyl]-1H-indazole]
pIC50 [4, 7]: 8.42
inhibition at 1 µM (human FAK (FAKcd409)): 9%
% remain (HLM, 2 h) (in vitro): 87%
inhibition at 1 µM (human FGF-R1): 85%
inhibition at 1 µM (CDK2/Cyclin A complex): 1%
inhibition at 1 µM (LCK tyrosine kinase): 51%
inhibition at 1 µM (CDK4/Cyclin D3 complex): 2%
inhibition at 1 µM (human CHK1 (FL-CHK1)): 0%
inhibition at 1 µM [3]: 51%

Clc1cccc(/C=C/c2n[nH]c3cc(-c4ccncc4)ccc23)c1 [Reference Example 29(i), 6-pyrid-4-yl-3-E-[2-(3-chlorophenyl)ethenyl]-1H-indazole]
pKi (CDK2/Cyclin A complex; Table 3, read-out: CDK2* (Ki)): 5.51
pKi (CDK4/Cyclin D3 complex): 5.30

FC(F)(F)Oc1cccc(/C=C/c2n[nH]c3cc(-c4ccncc4)ccc23)c1 [Reference Example 29(p), 6-pyrid-4-yl-3-E-[2-(3-trfluorometboxyphenyl)ethenyl]-1H-indazole]
inhibition at 1 µM (CDK1; [8]): 6%

Cc1nc(/C=C/c2n[nH]c3cc(-c4ccncc4)ccc23)cs1 [Reference Example 29(j), 6-pyrid-4-yl-3-E-[2-(2-methylthiazol-4-yl)ethenyl]-1H-indazole]
inhibition at 1 µM (CDK1; [8]): 31%

Cc1cc(C(=O)Nc2cccc(C(=O)c3ccc4c(/C=C/c5ccccn5)n[nH]c4c3)c2)n(C)n1 [Reference Example 41(p), 6-[3-((1,3-Dimethyl-1H-pyrazol-5-yl)carboxamido)benzoyl]-3-E-[2-(pyridin-2-yl)ethenyl]-1H-indazole]
pIC50 [4, 7]: 8.59
pIC50 ([4]; read-out: HUVEC IC50): 9.57
inhibition at 1 µM (human FAK (FAKcd409)): 9%
% remain (HLM, 2 h) (in vitro): 62%
inhibition at 1 µM (CDK2/Cyclin A complex): 6%
inhibition at 1 µM (LCK tyrosine kinase): 49%
inhibition at 1 µM (CDK4/Cyclin D3 complex): 3%
inhibition at 1 µM (human CHK1 (FL-CHK1)): 0%
inhibition at 1 µM [3]: 49%

Oc1ccc(-c2ccc3c(/C=C/c4ccccc4)n[nH]c3c2)cc1 [Reference Example 28(b), 6-(4-hydroxyphenyl)-3-E-styryl-1H-indazole]
inhibition at 1 µM [5]: 96%
inhibition at 1 µM (CDK2/Cyclin A complex): 97%
inhibition at 1 µM (CDK4/Cyclin D3 complex): 98%

O=C(Nc1ccc(O)cc1)c1ccc2c(-c3nc4cc(F)c(F)cc4[nH]3)n[nH]c2c1 [Example 54(a), 3-(5,6-Difluoro-1H-benzoimidazol-2-yl)-N-(4-hydroxyphenyl)-1H-indazole-6-carboxamide]
inhibition at 1 µM (CDK1; [8]): 1%

CCn1nc(C)cc1C(=O)Nc1cc(Nc2ccc3c(/C=C/c4ccccn4)n[nH]c3c2)c(F)cc1C [Example 48(a), 6-[N.(S-((1-Ethyl-3-methyl-1H-pyrazol-5-yl)carboxamido)-2-fluoro-4-methylphenyl)amino]-3-E-[2-(pyridin-2-yl)ethenyl]-1H-indazole]
inhibition at 1 µM (human FAK (FAKcd409)): 11%
% remain (HLM, 2 h) (in vitro): 55%
inhibition at 1 µM (CDK2/Cyclin A complex): 0%
inhibition at 1 µM (LCK tyrosine kinase): 13%
inhibition at 1 µM (human CHK1 (FL-CHK1)): 0%
inhibition at 1 µM [3]: 52%

CC(C)(C)c1ccc2[nH]c(-c3n[nH]c4cc(C(=O)Nc5ccc(O)cc5)ccc34)nc2c1 [Example 54(g), 3-(5-tert-Butyl-1H-benzoimidazol-2-yl)-N-(4-hydroxyphenyl)-1H-indazole-6-carboxamide]
inhibition at 1 µM (CDK1; [8]): 3%

NC(=O)c1ccc2c(-c3nc4ccccc4[nH]3)n[nH]c2c1 [Example 53(e), 3-(1H-Benzoimidazol-2-yl)-1H-indazole-6-carboxamide]
inhibition at 1 µM (CDK1; [8]): 13%

Clc1ccc(/C=C/c2n[nH]c3cc(-c4ccncc4)ccc23)cc1 [Reference Example 29(c)]
inhibition at 1 µM (CDK1; read-out: CDK1* (% inhibition), Table 3): 56%

Fc1cc(F)cc(/C=C/c2n[nH]c3cc(-c4ccncc4)ccc23)c1 [Reference Example 29(m), 6-pyrid-4-yl-3-E-[2-(3,5-difluorophenyl)ethenyl]-1H-indazole]
inhibition at 1 µM (CDK1; [8]): 54%

COc1cc(-c2ccc3c(/C=C/c4ccc(OC)c(OC)c4)n[nH]c3c2)ccc1O [1(a), 3-[E-2-(3,4-Dimethoxy-phenyl)vinyl]-6-(3-methoxy-4-hydroxyphenyl)-1H-indazole]
inhibition at 10 µM (human FAK (FAKcd409); read-out: % Inhibition FAK, compound tested at 10 µM): 69%
% remain (HLM, 2 h) (in vitro): 98%
IC50 ([1]; MV522, read-out: MV522 IC50 (µM)): 0.35 µM
T1/2 [6]: 2.4 h
AUC (in vivo; ip): 691 ng·h/mL
inhibition at 10 µM ([3]; read-out: % Inhibition Tie2-P, compound tested at 10 µM): 95%

CCOc1cc(-c2ccc3c(/C=C/c4ccccc4)n[nH]c3c2)ccc1O [Reference Example 27(h), 6-[3-ethoxy-4-hydroxyphenyl]-3-E-styryl-1H-indazole]
inhibition at 1 µM (CDK1; [8]): 84%
